Assays:
B16F10 tumors [1] = assay: In vivo therapy study, tumor growth and survival; design: species or system C57BL/6 mice; details: addition of amph-FITC vaccine boosting to E2-28z CAR T cells + intratumoral amph-FITC
Excerpt: (§1) C57BL/6 WT, CD45.1^+, Batf3 KO, and Rag1 KO mice (Jackson Laboratory, 6 to 8 weeks old) were inoculated with 10^6 B16F10, 10^6 MC38, 10^6 TC-1, or 3×10^6 CT-2A tumor cells subcutaneously at the flank. Once tumors grew to ˜25 mm^2 in area, mice underwent a non-myeloablative 5 Gy dose of TBI administered by a [^137Cs] gamma radiation source, 24 hr prior to adoptive transfer of 10^7 CD45.1+ CAR T cells IV via the tail vein. One day later, mice were vaccinated subcutaneously at the tail base with 10 nmol DSPE-PEG2k-FITC (Creative PEGworks) and 25 μg cyclic di-GMP (Invivogen), and vaccinated for 3 total doses, once weekly. Intratumoral injection of 10 nmol amph-FITC was administered beginning the day after the first vaccination, and continuing every 3 days.
(§2) For all studies, tumor progression was monitored by caliper measurements. Survival was evaluated over time until tumors exceeded 200 mm^2 in area, were severely ulcerated >1 week, or experienced >20% weight loss. To monitor trafficking of Fluc-expressing CAR T cells, mice were injected subcutaneously at the scruff with 150 mg/kg D-luciferin K^+ Salt (Perkin-Elmer) and imaged on a Xenogen IVIS Spectrum. Prior to imaging, C57BL/6 mice were depilated on their back to improve signal sensitivity.

CT-2A tumors [2] = assay: In vivo therapy study, tumor growth and survival; design: species or system C57BL/6 mice; details: intratumoral once every 6 days instead of every 3 days
Excerpt: as §1, §2

[3] = Toxicity of amph-FITC and FITC CAR T therapy in tumor-bearing mice; assay type: in vivo, C57BL/6 mice
Excerpt: as §1, §2

B16F10 tumors [4] = tested on: B16F10 tumors
Experimental: For cellular localization studies, MC38 tumor-bearing mice were injected intratumorally with 10 nmol DSPE-PEG2k-FITC, and 24 hr later tumors were enzymatically digested at 37° C. for 30 min with 1 mg/mL collagenase D and 0.2 mg/mL DNase I in complete RPMI media before mechanical dissociation through a 70 μm cell strainer.

CT-2A tumors [5] = assay: T cell infiltration of treated tumors, immunohistochemistry; assay type: in vivo, C57BL/6 mice; details: day 12, i.t. amph-FITC ± amph-FITC vaccine
Excerpt: as §1

MSTO-211H tumors = assay: Xenograft study with human CAR T cells and intratumoral amph-FITC; assay type: in vivo
Experimental: For xenograft studies, 6- to 12-week-old NOD.Cg-Prkdc^scidIL2rg^tm1Wj1/SzJ (NSG) mice (Jackson Laboratory) were inoculated with 3×10^6 MSTO-211H cells subcutaneously at the flank. Once tumors grew to ˜25 mm^2, mice were adoptively transferred with 10^7 CAR T cells IV via the tail vein. Intratumoral injection of 10 nmol amph-FITC was administered beginning the day after adoptive transfer, and continuing every 3 days.
as §2
For quantification of human CAR T cells in the peripheral blood, spleen, and tumor, tissues were processed as described above, then stained with LIVE/DEAD Aqua, BUV496 anti-CD4 (clone SK3/Leu3a, BD Biosciences), BUV805 anti-CD8α (clone SK1, BD Biosciences), PE anti-myc tag (clone 9B11, Cell Signaling), and APC-Cy7 anti-CD45 (clone 2D1, BioLegend).

CT-2A glioblastoma cells = assay: Amph-FITC labeling of tumor cells in vitro, flow cytometry; assay type: cell-based, murine; details: 100 nM, 30 min at 37° C.
Experimental: (§3) Amph-FITC labeling and cytotoxicity studies: For in vitro labeling of tumor cells with amph-FITC, tumor cells were washed with 1×PBS and incubated at a cell density of 10^6 cells/mL for 30 minutes at 37° C. with DSPE-PEGx-FITC, where x=0, 1, 2, 3.4, 5, or 10 kDa (Creative PEGworks) in PBS. For cocultures, target cells were labeled simultaneously with 100 nM amph-FITC and CellTrace Violet (ThermoFisher); 20,000 target cells were seeded per well in a 96-well flat-bottom plate with CAR T cells at the indicated effector-to-target ratios. Following a 16 hr incubation, cells were stained with SYTOX red (ThermoFisher) for flow cytometry, and IFN-γ in the supernatant was quantified using a Mouse IFN gamma Uncoated ELISA Kit (Invitrogen).

B16F10 melanomas = assay: Bilateral flank tumors, i.t. amph-FITC only in the 1° lesion; assay type: in vivo, C57BL/6 mice
Excerpt: as §1, §2

CT-2A tumors [6] = assay: as above; assay type: in vivo, C57BL/6 mice; details: FITC-CAR T cells, amph-FITC vaccination, i.t. amph-FITC right flank only
Excerpt: as §1, §2

B16F10 tumors [7] = assay: CAR T cell expansion and tumor homing by bioluminescence imaging; assay type: in vivo, C57BL/6 mice
Excerpt: as §1, §2

[8] = tested on: B16F10 murine melanoma cells; assay: Amph-FITC labeling of tumor cells in vitro, flow cytometry; assay type: cell-based; details: incubated 30 min at 37° C.
Experimental: as §3

[9] = tested on: MC38 murine colon carcinoma cells; assay: as above; assay type: cell-based; details: 100 nM, 30 min at 37° C.
Experimental: as §3

[10] = injection of only the primary tumor

With “1,2-distearoyl-sn-glycero-3-phosphoethanolamine-PEG-FITC [amph-FITC]” the “increase of median survival” value (B16F10 tumors [1]) was 3 days, the “therapeutic effect at reduced injection frequency” value (CT-2A tumors [2]) was “did not reduce the therapeutic effect” and the body weight ([3]; CAR T cells with intratumoral amph-FITC and amph-FITC vaccination, versus untreated control) was “no weight loss”. The “inflammation of the skin surrounding treated tumors” value ([3]; local i.t. administration during treatment) was “no obvious inflammation”, the “cellular distribution of FITC labeling after lymphodepletion” value (B16F10 tumors [4]; 5 Gy TBI 24 hours prior to amph-FITC injection) was “favored labeling of cancer cells in an even greater proportion” and the “proportion of each cell type bearing extracellularly exposed FITC” value (B16F10 tumors [4]; after 1 hour, cancer cells and host cells) was 40-60%. For the same substance, the “proportion of cells still bearing exposed FITC” value (B16F10 tumors [4]; at 24 hours) was 20-40%, the “cell type numerically dominant among cells surface-decorated with FITC” value (B16F10 tumors [4]; by 24 hours) was “majority of cells surface-decorated with FITC were the cancer cells” and the “T cell infiltration of treated tumors” value (CT-2A tumors [5]) was “substantial T cell infiltration throughout the tumor”. For the same substance, the “graft vs. host disease” value (MSTO-211H tumors; mouse, in vivo) was “exacerbated GVHD”, the “relative expansion of CAR T cells induced by amph-FITC treatment” value (MSTO-211H tumors; whole mouse radiance) was 13.3 fold and the “association with and exposure on cell surfaces” value (CT-2A glioblastoma cells) was “associate with and be exposed on the surfaces”. The “growth of the treated primary tumor” value (B16F10 melanomas; [10]) was “slowed growth”, the “progression of the untreated lesions” value (B16F10 melanomas; [10]) was “trend toward slowed progression” and the overall survival (B16F10 melanomas; over untreated animals) was “substantial increases in overall survival”. For the same substance, the overall survival (CT-2A tumors [6]) was “substantially improved”, the “progression of injected (1°) and non-injected (2°) tumors” value (CT-2A tumors [6]) was “substantially slowed progression” and the “impact on overall T cell expansion or accumulation at the tumor site” value (B16F10 tumors [7]; addition of the vaccine boost to intratumoral amph-FITC) was “did not have a significant impact”. For the same substance, the “CAR T cell expansion (bioluminescence)” value (B16F10 tumors [7]; i.t. amph-FITC with E2-28z CAR T cells) was “triggered CAR T cell expansion”, the “CAR T cell accumulation at the tumor site” value (B16F10 tumors [7]; intratumoral amph-FITC compared with amph-FITC vaccination alone) was “greater accumulation at the tumor site” and the “FITC exposed on the cell surfaces (anti-FITC antibody staining)” value [8] was “exposed on the cell surfaces”. The “association of amph-FITC with the cells (total FITC)” value [8] was “dose-dependent association” and the “association with and exposure on cell surfaces” value [9] was “associate with and be exposed on the surfaces”.

From patent US20230372395A1, “CAR CELLS TARGETING AN INSERTED LIGAND” (Massachusetts Institute of Technology, priority 2022, published 2023)
